Molecular target: h-Cereblon_DDB1 (hCereblon(M1-L442)_hDDB1(M1-H1140)) (Homo sapiens (Human), UniProt Q96SW2)
Test: Fluorescence direct binding (tryptophan fluorescence titration)
Conditions: 20° C., excitation 280 nm, emission 340 nm, 1:1 protein-ligand complex; read-out: Fluorescence h-Cereblon_DDB1 Mean Kd_EQ
Protocol: Determination of the affinities of compounds to protein containing one or more tryptophan is measurable by monitoring the fluorescence emission in direct mode. The measurements depending on the protein available amounts are performed either manually in a cuvette on ISS-PC1 photon counting spectrofluorometer or automatically in well plates on a fluorescence plate reader device. Fluorescence titrations are performed at 20° C. in the chosen binding assay buffer by using a defined constant protein concentration against ligand concentration variations. Small aliquots of known ligand concentration solubilized in DMSO were added and the fluorescence, excited at 280 nm, was recorded at 340 nm. The fluorescence intensity was corrected for protein dilution and for the filter effect (Birdsall et al.^37). The corrected fluorescence intensity was plotted against the ligand concentration and fitted using a four-parameter sigmoidal function, from which the equilibrium dissociation constant Kd was computed using the law of mass action assuming a 1:1 protein-ligand complex (Eftink, 1997^38).
Process • 1) Optimization of measurement parameters to minimize protein consumption and to minimize the dilution effect and the DMSO content • 2) Titration measurements of the protein against ligand by at least 12 titration steps to obtain a good s-curve fit • 3) Repeat the same titration measurements with the ligand alone to enable correction • 4) Check the stability of the protein once by titration against DMSO alone • 5) Determination of the molar extinction coefficients of the ligand at 280 and 340 nm with help of a UV-spectrophotometer • 6) Use Excel template for the correction of the measured raw data • 7) Use GraphPad Prism software for the quadratic binding fit and the Kd evaluation.

h-Cereblon_DDB1 (hCereblon(M1-L442)_hDDB1(M1-H1140)), sequence (Q96SW2 whole entry): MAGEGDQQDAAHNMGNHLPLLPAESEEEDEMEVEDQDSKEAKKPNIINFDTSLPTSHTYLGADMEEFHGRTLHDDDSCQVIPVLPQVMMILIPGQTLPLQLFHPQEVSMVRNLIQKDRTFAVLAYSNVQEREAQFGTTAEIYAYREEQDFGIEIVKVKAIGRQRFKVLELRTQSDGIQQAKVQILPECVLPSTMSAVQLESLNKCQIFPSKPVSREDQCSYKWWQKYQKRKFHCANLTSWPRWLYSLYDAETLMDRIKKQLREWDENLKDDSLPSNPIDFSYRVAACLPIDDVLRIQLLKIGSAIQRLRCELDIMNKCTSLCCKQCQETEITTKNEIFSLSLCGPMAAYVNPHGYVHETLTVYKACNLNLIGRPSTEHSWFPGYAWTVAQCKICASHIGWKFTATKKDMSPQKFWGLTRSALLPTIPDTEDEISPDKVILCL
h-Cereblon_DDB1 (hCereblon(M1-L442)_hDDB1(M1-H1140)), sequence (Q16531 whole entry partner): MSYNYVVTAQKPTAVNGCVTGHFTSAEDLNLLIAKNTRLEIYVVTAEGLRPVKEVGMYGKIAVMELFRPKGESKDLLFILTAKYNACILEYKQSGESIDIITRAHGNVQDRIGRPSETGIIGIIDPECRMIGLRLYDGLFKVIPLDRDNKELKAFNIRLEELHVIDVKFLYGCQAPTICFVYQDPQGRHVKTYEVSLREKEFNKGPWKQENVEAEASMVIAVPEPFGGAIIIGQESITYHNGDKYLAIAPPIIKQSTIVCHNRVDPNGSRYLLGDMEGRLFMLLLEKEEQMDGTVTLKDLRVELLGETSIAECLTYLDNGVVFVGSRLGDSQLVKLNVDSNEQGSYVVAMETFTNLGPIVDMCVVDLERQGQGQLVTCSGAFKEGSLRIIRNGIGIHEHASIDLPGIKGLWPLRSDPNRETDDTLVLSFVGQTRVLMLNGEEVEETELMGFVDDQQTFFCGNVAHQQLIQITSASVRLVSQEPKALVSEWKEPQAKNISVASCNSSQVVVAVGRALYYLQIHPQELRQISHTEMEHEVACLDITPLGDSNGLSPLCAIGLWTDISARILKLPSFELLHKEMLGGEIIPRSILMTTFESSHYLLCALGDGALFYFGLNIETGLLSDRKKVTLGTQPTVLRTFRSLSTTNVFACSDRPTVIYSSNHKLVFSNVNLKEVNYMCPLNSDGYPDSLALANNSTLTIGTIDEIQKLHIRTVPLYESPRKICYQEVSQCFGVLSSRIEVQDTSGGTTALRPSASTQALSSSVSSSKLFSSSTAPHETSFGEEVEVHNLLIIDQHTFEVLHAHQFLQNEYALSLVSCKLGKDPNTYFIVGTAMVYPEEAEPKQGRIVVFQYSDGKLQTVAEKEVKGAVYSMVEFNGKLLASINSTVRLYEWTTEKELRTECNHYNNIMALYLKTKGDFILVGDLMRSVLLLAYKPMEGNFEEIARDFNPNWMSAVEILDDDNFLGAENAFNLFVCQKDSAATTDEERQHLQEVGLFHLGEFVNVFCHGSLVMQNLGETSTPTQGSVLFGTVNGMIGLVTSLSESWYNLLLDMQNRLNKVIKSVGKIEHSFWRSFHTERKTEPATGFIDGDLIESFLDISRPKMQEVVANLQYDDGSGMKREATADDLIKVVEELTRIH

Structure (SMILES) | Kd
O=C1CCc2cc(NC(=O)C3CCCc4ccccc43)cnc2N1 (racemic) [Example 21, (RS)—N-(7-Oxo-5,6,7,8-tetrahydro-1,8-naphthyridin-3-yl)-1,2,3,4-tetrahydronaphthalene-1-carboxamide] | 4 nM
CNC(=O)c1ccc2c(c1)nc(-c1cc(-c3cncn3C)nc3ccccc13)n2-c1ccc2c(c1)CCC(=O)N2 [Example 2, N-Methyl-2-[2-(3-methylimidazol-4-yl)-4-quinolyl]-1-(2-oxo-3,4-dihydro-1H-quinolin-6-yl)benzimidazole-5-carboxamide] | 40 nM
Cn1cncc1-c1cc(C(=O)Nc2ccc3c(c2)CCC(=O)N3)c2ccccc2n1 [Example 5] | 677 nM
O=C1CCc2cc(-n3ccnc3)cnc2N1 [Example 9, 6-(1H-Imidazol-1-yl)-3,4-dihydro-1,8-naphthyridin-2(1H)-one] | 16 nM
CNC(=O)c1ccc2c(c1)nc(CO)n2-c1ccc2c(c1)CCC(=O)N2 [Example 15, 2-(Hydroxymethyl)-N-methyl-1-(2-oxo-1,2,3,4-tetrahydroquinolin-6-yl)-1H-benzo[d]imidazole-5-carboxamide] | 11 nM
COC(=O)c1ccc(Nc2ccc3c(c2)CCC(=O)N3)cc1 [Example 19, Methyl 4-((2-oxo-1,2,3,4-tetrahydroquinolin-6-yl)amino)benzoate] | 30 nM
COC(=O)c1ccc2c(c1)nc(-c1ccnc(OC)c1)n2-c1ccc2c(c1)CCC(=O)N2 [Example 22, Methyl 2-(2-methoxypyridin-4-yl)-1-(2-oxo-1,2,3,4-tetrahydroquinolin-6-yl)-1H-benzo[d]imidazole-5-carboxylate] | 4 nM
CNC(=O)c1ccc2c(c1)nc(-c1cccc(OC)n1)n2-c1ccc2c(c1)CCC(=O)N2 [Example 23, 2-(6-Methoxypyridin-2-yl)-N-methyl-1-(2-oxo-1,2,3,4-tetrahydroquinolin-6-yl)-1H-benzo[d]imidazole-5-carboxamide] | 15 nM
CNC(=O)c1ccc2c(c1)nc(-c1ccc(OC)nc1)n2-c1ccc2c(c1)CCC(=O)N2 [Example 24, 2-(6-Methoxypyridin-3-yl)-N-methyl-1-(2-oxo-1,2,3,4-tetrahydroquinolin-6-yl)-1H-benzo[d]imidazole-5-carboxamide] | 12 nM
CNC(=O)c1ccc2c(c1)nc(-c1ccnc(OC)c1)n2-c1cnc2c(c1)CCC(=O)N2 [Example 29, 2-(2-Methoxy-4-pyridyl)-N-methyl-1-(7-oxo-6,8-dihydro-5H-1,8-naphthyridin-3-yl)benzimidazole-5-carboxamide] | 35 nM
CNC(=O)c1ccc2c(c1)nc(-c1cc(OC)ccc1C)n2-c1ccc2c(c1)CCC(=O)N2 [Example 33, 2-(5-Methoxy-2-methyl-phenyl)-N-methyl-1-(2-oxo-3,4-dihydro-1H-quinolin-6-yl)benzimidazole-5-carboxamide] | 45 nM
CNC(=O)c1ccc2c(c1)nc(-c1cc(OC)ccc1F)n2-c1ccc2c(c1)CCC(=O)N2 [Example 35, 2-(2-Fluoro-5-methoxy-phenyl)-N-methyl-1-(2-oxo-3,4-dihydro-1H-quinolin-6-yl)benzimidazole-5-carboxamide] | 14 nM
CNC(=O)c1ccc2c(c1)nc(-c1cc(OC)ncc1F)n2-c1ccc2c(c1)CCC(=O)N2 [Example 44, 2-(5-Fluoro-2-methoxy-4-pyridyl)-N-methyl-1-(2-oxo-3,4-dihydro-1H-quinolin-6-yl)benzimidazole-5-carboxamide] | 10 nM
CNC(=O)c1ccc2c(c1)nc(Cc1ccc(C(F)(F)F)cc1OC)n2-c1ccc2c(c1)CCC(=O)N2 [Example 47, 2-[[2-Methoxy-4-(trifluoromethyl)phenyl]methyl]-N-methyl-1-(2-oxo-3,4-dihydro-1H-quinolin-6-yl)benzimidazole-5-carboxamide] | 17 nM
O=C1CCc2ccc(-n3ccnc3)cc2N1 [Example 53, 7-(1H-Imidazol-1-yl)-3,4-dihydroquinolin-2(1H)-one] | 16 nM
O=C1CCc2cc(C(=O)N3CCc4cccnc43)ccc2N1 [Example 55, 6-(2,3-Dihydropyrrolo[2,3-b]pyridine-1-carbonyl)-3,4-dihydro-1H-quinolin-2-one] | 23 nM
CC(=O)N1CCC(NC(=O)c2ccc3c(c2)CCC(=O)N3)CC1 [Example 57, N-(1-Acetyl-4-piperidyl)-2-oxo-3,4-dihydro-1H-quinoline-6-carboxamide] | 41 nM
O=C1CCc2cc(C(=O)N3CCc4ccccc43)cnc2N1 [Example 58, 6-(Indoline-1-carbonyl)-3,4-dihydro-1H-1,8-naphthyridin-2-one] | 62 nM
O=C1CCc2cc(C(=O)N3CCc4cccnc43)cnc2N1 [Example 59, 6-(2,3-Dihydropyrrolo[2,3-b]pyridine-1-carbonyl)-3,4-dihydro-1H-1,8-naphthyridin-2-one] | 3 nM
O=C1CCc2cc(C(=O)N3CCCc4ccccc43)cnc2N1 [Example 60, 6-(3,4-Dihydro-2H-quinoline-1-carbonyl)-3,4-dihydro-1H-1,8-naphthyridin-2-one] | 1 nM
CC(C)c1nc2ccccc2n1-c1ccc2c(c1)CNC(=O)N2 [Example 61, 6-(2-Isopropyl-1H-benzo[d]imidazol-1-yl)-3,4-dihydroquinazolin-2(1H)-one] | 171 nM
CNC(=O)c1ccc2c(c1)nc(C(C)C)n2-c1ccc2c(c1)CNC(=O)N2 [Example 62, 2-Isopropyl-N-methyl-1-(2-oxo-1,2,3,4-tetrahydroquinazolin-6-yl)-1H-benzo[d]imidazole-5-carboxamide] | 120 nM
Cc1sc2c(c1C)C(c1ccc(Cl)cc1)=N[C@@H](CC(=O)NCCCCCCCCCCNC(=O)c1ccc3c(c1)nc(-c1cc(-c4cncn4C)nc4ccccc14)n3-c1ccc3c(c1)CCC(=O)N3)c1nnc(C)n1-2 [Example A, N-(10-(2-((6S)-4-(4-Chlorophenyl)-2,3,9-trimethyl-6H-thieno[3,2-f][1,2,4]triazolo[4,3-a][1,4]diazepin-6-yl)acetamido)decyl)-2-(2-(1-methyl-1H-imidazol-5-yl)quinolin-4-yl)-1-(2-oxo-1,2,3,4-tetrahydroquinolin-6-yl)-1H-benzo[d]imidazole-5-carboxamide] | 338 nM
Cc1sc2c(c1C)C(c1ccc(Cl)cc1)=N[C@@H](CC(=O)NCCCCCNC(=O)c1ccc3c(c1)nc(-c1cc(-c4cncn4C)nc4ccccc14)n3-c1ccc3c(c1)CCC(=O)N3)c1nnc(C)n1-2 [Example B, N-(5-(2-((6S)-4-(4-Chlorophenyl)-2,3,9-trimethyl-6H-thieno[3,2-f][1,2,4]triazolo[4,3-a][1,4]diazepin-6-yl)acetamido)pentyl)-2-(2-(1-methyl-1H-imidazol-5-yl)quinolin-4-yl)-1-(2-oxo-1,2,3,4-tetrahydroquinolin-6-yl)-1H-benzo[d]imidazole-5-carboxamide] | 258 nM
Cc1sc2c(c1C)C(c1ccc(Cl)cc1)=N[C@@H](CC(=O)NCCOCCOCCNC(=O)c1ccc3c(c1)nc(-c1cc(-c4cncn4C)nc4ccccc14)n3-c1ccc3c(c1)CCC(=O)N3)c1nnc(C)n1-2 [Example C, N-(2-(2-(2-(2-((6S)-4-(4-Chlorophenyl)-2,3,9-trimethyl-6H-thieno[3,2-f][1,2,4]triazolo[4,3-a][1,4]diazepin-6-yl)acetamido)ethoxy)ethoxy)ethyl)-2-(2-(1-methyl-1H-imidazol-5-yl)quinolin-4-yl)-1-(2-oxo-1,2,3,4-tetrahydroquinolin-6-yl)-1H-benzo[d]imidazole-5-carboxamide] | 524 nM

— patent publication US11401256B2, “Dihydroquinolinones for medical treatment” (C4 Therapeutics, Inc., priority 2017, dated 2022)
